According to patent publication US20260098013A1, “Stereoisomer Conjugates of Dextrorphan” (priority 2024, published 2026):

Conditions: rat, in vivo; for AUC0-6 h / Cmax / Tmax: 6 mg/kg

Row | SMILES | Exposure Ratio AUC (Sprague-Dawley, po) | Exposure Ratio Cmax (Sprague-Dawley, po) | AUC0-6 h (Sprague-Dawley, po) | Cmax (Sprague-Dawley, po) | Tmax (Sprague-Dawley, po) | AUC compared to dextrorphan tartrate (po) | Cmax compared to dextrorphan tartrate (po) | dextrorphan AUC0-6h, times higher compared to dextrorphan tartrate (po) | dextrorphan Cmax, times higher compared to dextrorphan tartrate (po) | time to reach maximum plasma concentration after administration (Sprague-Dawley, po) | steadiness of plasma concentration | oral dextrorphan bioavailability / exposure compared to dextrorphan tartrate (po) | fold increase in AUC0-6h compared to dextrorphan tartrate (Sprague-Dawley, po) | fold increase in Cmax compared to dextrorphan tartrate (Sprague-Dawley, po) | oral bioavailability compared to the other diastereomer of the same prodrug (po)
1 | CC[C@@H](C)[C@@H](NC(C)=O)C(=O)Oc1ccc2c(c1)[C@]13CCCC[C@@H]1C(C2)N(C)CC3 [3-(N-Ac-D-Ile)-dextrorphan] | 880% | 672% | 294.6 ng·h/mL | 81.9 ng/mL | 2.9 h | much smaller | much smaller | > 8 times | over 6 times | – | – | – | – | – | –
2 | CC(=O)N[C@@H](CCC(=O)O)C(=O)Oc1ccc2c(c1)[C@]13CCCC[C@@H]1C(C2)N(C)CC3 [3-(N-Ac-L-Glu)-dextrorphan] | 43% | 14% | 18.4 ng·h/mL | 4.8 ng/mL | 1.8 h | much smaller | much smaller | – | – | around 2 hours | steadier | – | – | – | –
3 | CC(=O)N[C@@H](Cc1ccccc1)C(=O)Oc1ccc2c(c1)[C@]13CCCC[C@@H]1[C@H](C2)N(C)CC3 [3-(N-Ac-L-Phe)-dextrorphan] | 44% | 18% | 27.7 ng·h/mL | 8.0 ng/mL | 2.8 h | much smaller | much smaller | – | – | – | much steadier | – | – | – | –
4 | CN1CC[C@]23CCCC[C@H]2[C@H]1Cc1ccc(O)cc13 [Dextrorphan, (+)-17-methylmorphinan-3-ol] | – | – | – | – | – | – | – | – | – | approximately 30 minutes | – | – | – | – | –
5 | CC(=O)N[C@H](CCC(=O)O)C(=O)Oc1ccc2c(c1)[C@]13CCCC[C@@H]1C(C2)N(C)CC3 [3-(N-Ac-D-Glu)-dextrorphan] | 30% | 10% | 12.7 ng·h/mL | 3.5 ng/mL | 2.4 h | much smaller | much smaller | – | – | around 2 hours | steadier | – | – | – | –
6 | CC(=O)N[C@@H](C(=O)Oc1ccc2c(c1)[C@]13CCCC[C@@H]1C(C2)N(C)CC3)C(C)C [3-(N-Ac-D-Val)-dextrorphan] | 556% | 180% | 467.4 ng·h/mL | 127.7 ng/mL | 3.0 h | higher | higher | more than 5 times | about 1.8 times | – | – | – | – | – | –
7 | CC(C)[C@@H](NC(=O)[C@@H](C)N)C(=O)Oc1ccc2c(c1)[C@]13CCCC[C@@H]1C(C2)N(C)CC3 [3-(D-Ala-D-Val)-dextrorphan] | – | – | – | – | – | larger | larger | – | – | – | – | superior | – | – | –
8 | CC(=O)N[C@H](C)C(=O)Oc1ccc2c(c1)[C@]13CCCC[C@@H]1C(C2)N(C)CC3 [3-(N-Ac-D-Ala)-dextrorphan] | – | 32% | 30.8 ng·h/mL | 16.5 ng/mL | 1.6 h | much smaller | much smaller | – | – | – | steadier | – | – | – | –
9 | CC(C)[C@H](NC(=O)[C@H](N)C(C)C)C(=O)Oc1ccc2c(c1)[C@]13CCCC[C@@H]1C(C2)N(C)CC3 [3-(D-Val-D-Val)-dextrorphan] | – | – | – | – | – | larger | larger | – | – | – | – | – | about 4.5 fold | ~2.7 fold | significantly increased
10 | C[C@H](N)C(=O)N[C@@H](C)C(=O)Oc1ccc2c(c1)[C@]13CCCC[C@@H]1C(C2)N(C)CC3 [3-(L-Ala-L-Ala)-dextrorphan] | 147% | 217% | 88.3 ng·h/mL | 87.3 ng/mL | 0.8 h | larger | larger | about 1.5 times | over 2 times | – | – | – | – | – | –
11 | CC[C@H](C)[C@H](NC(C)=O)C(=O)Oc1ccc2c(c1)[C@]13CCCC[C@@H]1C(C2)N(C)CC3 [3-(N-Ac-L-Ile)-dextrorphan] | – | – | 27.4 ng·h/mL | 13.9 ng/mL | 2.2 h | – | – | – | – | – | – | – | – | – | –
12 | CC(=O)N[C@H](C(=O)Oc1ccc2c(c1)[C@]13CCCC[C@@H]1C(C2)N(C)CC3)C(C)C [3-(N-Ac-L-Val)-dextrorphan] | 37% | – | 31.2 ng·h/mL | 12.6 ng/mL | 2.8 h | – | lower | – | – | – | – | – | – | – | –
13 | CC(C)[C@H](N)C(=O)N[C@H](C(=O)Oc1ccc2c(c1)[C@]13CCCC[C@@H]1C(C2)N(C)CC3)C(C)C [3-(L-Val-L-Val)-dextrorphan] | 85% | 128% | 78.5 ng·h/mL | 98.9 ng/mL | 0.5 h | slightly lower | – | – | – | – | – | good oral bioavailability | – | – | –
14 | CC(=O)N[C@@H](C)C(=O)Oc1ccc2c(c1)[C@]13CCCC[C@@H]1C(C2)N(C)CC3 [3-(N-Ac-L-Ala)-dextrorphan] | 40% | 35% | 29.6 ng·h/mL | 18.2 ng/mL | 0.7 h | much smaller | much smaller | – | – | – | steadier | decreasing bioavailability | – | – | –
15 | CC(=O)N[C@H](Cc1ccccc1)C(=O)Oc1ccc2c(c1)[C@]13CCCC[C@@H]1[C@H](C2)N(C)CC3 [3-(N-Ac-D-Phe)-dextrorphan] | 30% | 11% | 19.1 ng·h/mL | 4.7 ng/mL | 5.0 h | much smaller | much smaller | – | – | – | much steadier | – | – | – | –
16 | C[C@@H](N)C(=O)N[C@H](C)C(=O)Oc1ccc2c(c1)[C@]13CCCC[C@@H]1C(C2)N(C)CC3 [3-(D-Ala-D-Ala)-dextrorphan] | 59% | 43% | 24.7 ng·h/mL | 9.6 ng/mL | 2.1 h | lower | smaller | – | – | – | – | lower | – | – | –
